Assay results taken from patent US12636368B2, “Ionizable lipids for nucleic acid delivery” (Global Life Sciences Solutions Canada ULC, priority 2019, dated 2026).
Read-outs that look alike come from different tables or passages of the source.

Experiments:
[1] = TNS assay, surface pKa of lipid nanoparticles; format: physicochemical
Experimental: In embodiments of the invention, the experimental pKa of formulated lipid nanoparticles comprising lipids in Table 1 is calculated using the 2-(p-toluidinyl)naphthalene-6-sulfonic acid (TNS) assay. The procedure for the TNS assay is described in Example 25.
The pKa of each cationic lipid was determined in lipid nanoparticles using an assay based on fluorescence of 6-(p-Toluidino)-2-naphthalenesulfonic acid sodium salt (TNS, Sigma Aldrich), which is a fluorescent probe for the conformational state of proteins5. Empty lipid nanoparticles comprising ionizable lipid in LM02 composition in distilled water at a concentration of 3.125 mM total lipid are formulated using NanoAssemblr® Spark™, and were then was characterized for LNP quality on the Zetasizer™ using a 30× dilution with 1×PBS in the low volume cuvette. Lipid nanoparticles were further diluted 4× using distilled water to 0.781 mM total lipid. TNS was prepared as a 25 μM stock solution in distilled water. Then 6.4 μL of diluted LNP samples of 0.781 mM total lipid were mixed with 10 μL of diluted TNS to a final volume of 250 μL with buffer containing 10 mM HEPES, 10 mM MES, 10 mM NH4OAc and 130 mM NaCl where the pH ranged from 3 to 9 in 0.5 pH increments.
Samples were mixed thoroughly, and the fluorescence intensity was measured at room temperature in a BioTek™ Synergy™ H1 Hybrid Multi-Mode Monochromator™ Fluorescence Microplate Reader using excitation and emission wavelengths of 321 nm and 445 nm respectively. A sigmoidal best fit analysis was applied to the fluorescence data using GraphPad Prism™ software, and the pKa was measured as the pH at half-maximal fluorescence intensity.

C57BL/6 mice = experiment: OVA mRNA LNP intramuscular immunization, anti OVA-IgG ELISA; format: in vivo; settings: i.m., days 1 and 10
Text: LNP with the composition LM02b were used to encapsulate OVA antigen encoded CleanCap® OVA WT mRNA [TriLink L7610] or CleanCap® OVA 5-moU mRNA [TriLink L7210]. A lipid mixture of Ionizable lipid, DOPE, Cholesterol, and PEG-DMG2000, all in ethanol, was mixed with a low PH buffered solution of OVA mRNA at an N/P ratio of 8 using a NanoAssemblr® Ignite™ microfluidic mixer. The LNP were filtered using the Amicon™ ultra filtration technique and characterized for Size, PDI and Encapsulation Efficiency. Size and PDI were measured using dynamic light scattering techniques, and nucleic acid encapsulation efficiency was calculated from the Quant-iT RiboGreen RNA assay. […]
All animals were handled according to the Institutional Animal Care and Use Committee ethics protocols. […] Aliquots of serum samples were thawed and analyzed at appropriate dilutions for OVA expression and for IgG measurements using standard ELISA techniques.
Anti OVA-IgG ELISA of serum samples: Sera from the immunized mice were collected at 2 weeks post second immunization. OVA-specific production of IgG in response to OVA-encoded mRNA in various LNPs were measured by ELISA as described supra. […] After 30 minutes of incubation, a stop solution of 2 N sulphuric acid was added and a plate reader was used to determine absorbance at 450 nm. […]

[2] = LNP size and PDI by dynamic light scattering; format: physicochemical
Experimental: After the lipid particles were made as described supra, particle size (hydrodynamic diameter of the particles) was determined by Dynamic Light Scattering (DLS) using a ZetaSizer™ Nano ZS™ (Malvern Instruments, UK). He/Ne laser tuned to 633 nm wavelength was used as the light source. Data were measured from the scattered intensity data conducted in backscattering detection mode (measurement angle=173). Measurements were an average of 10 runs of two cycles each per sample. Z-Average size was reported as the particle size, and is defined as the harmonic intensity averaged particle diameter.
(§1) Physical characteristics of lipid nanoparticle (LNP) compositions comprising compounds according to Formula (I) and that were manufactured on the NanoAssemblr® Spark and Benchtop, are shown in Tables 6 and 7 below. Size, size variation of the LNP (PDI), encapsulation efficiency, and pKa are shown. The physical characteristics of these LNP are important from a standpoint of stability, biodistribution, and cell membrane crossing. There was good encapsulation in all the formulations, with polydispersity (PDI) under 0.3. Size and PDI were measured using dynamic light scattering techniques, and nucleic acid encapsulation efficiency was calculated from a modified Quant-iT RiboGreen RNA assay.

[3] = Nucleic acid encapsulation efficiency by RiboGreen assay; format: physicochemical
Experimental: Messenger RNA or plasmid NAT was diluted using sodium acetate buffer to the required concentration. Lipid nucleic acid particle samples were then prepared by running both fluids using the NanoAssemblr® Spark instrument. […] The lipid nucleic acid particles made in the instrument were immediately diluted down with 48 μL Ca and Mg free 1×PBS at pH 7.4 in the aqueous output well. These nucleic acid lipid particles were immediately collected into microcentrifuge tubes containing 96 μL of Ca and Mg free 1×PBS at pH 7.4. Encapsulation efficiency was measured by a modified Ribogreen™ assay (Quanti-iT RiboGreen™ RNA assay kit, Fisher). Observed particle attributes were generally sized from 60-200 nm for mRNA, depending on lipid composition and method of production.
as §1

[4] = Table 6, GFP-encoded LNPs, CT10, N/P 8
[5] = Table 7, EPO mRNA LNPs, LM02, N/P 6

Compound: CCCCC/C=C\C/C=C\CCCCCCCC(=O)O[C@@H]1[C@@H](OC(=O)CCCCCCC/C=C\C/C=C\CCCCC)CO[C@@H]1COC(=O)C1CCN(C)CC1 (racemic) [PNI 325]
- pKa ([1]; Table 1, formulated lipid nanoparticles, TNS assay, read-out: Exp. pKa): 6.45
- pKa ([1]; Table 8, read-out: Exp.pKa): 6.45
- immune response to OVA antigen loaded LNPs (C57BL/6 mice): effectively elicit an immune response similar to OVA antigen
- Diameter (Z. ave, nm) [2, 4]: 121.5 nm
- Polydispersity Index (PDI) [2, 4]: 0.39
- Diameter (Z. ave, nm) [2, 5]: 65.3 nm
- Polydispersity Index (PDI) [2, 5]: 0.09
- Encapsulation Efficiency (%) [3, 4]: 51.1%
- Encapsulation Efficiency (%) [3, 5]: 95.9%
